#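 Compound exposure: 48 hours, 5 concentrations, 96-well plates. GI50 marks 50% less growth. TGI: concentration producing complete growth inhibition.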
# Tests used:
# Assay in all cases: NCI tumour cell line growth inhibition, 48 h
# [1] = system: 786-0 renal
# [2] = system: A549 NSCLC
# [3] = system: ACHN renal
# [4] = system: BT-549 breast
# [5] = system: CAKI-1 renal
# [6] = system: CCRF-CEM leukemia
# [7] = system: COLO 205 colon
# [8] = system: DU-145 prostate
# [9] = system: EKVX NSCLC
# [10] = system: HCC-2998 colon
# [11] = system: HCT-116 colon
# [12] = system: HCT-15 colon
# [13] = system: HL-60(TB) leukemia
# [14] = system: HOP-62 NSCLC
# [15] = system: HOP-92 NSCLC
# [16] = system: HS 578T breast
# [17] = system: HT29 colon
# [18] = system: IGROV1 ovarian
# [19] = system: K-562 leukemia
# [20] = system: KM12 colon
# [21] = system: LOX IMVI melanoma
# [22] = system: M14 melanoma
# [23] = system: MALME-3M melanoma
# [24] = system: MCF7 breast
# [25] = system: MDA-MB-231 breast
# [26] = system: MDA-MB-435
# [27] = system: MOLT-4 leukemia
# [28] = system: NCI-H226 lung
# [29] = system: NCI-H23 lung
# [30] = system: NCI-H460 lung
# [31] = system: NCI-H522 lung
# [32] = system: NCI/ADR-RES ovarian
# [33] = system: OVCAR-3 ovarian
# [34] = system: OVCAR-4 ovarian
# [35] = system: OVCAR-5 ovarian
# [36] = system: OVCAR-8 ovarian
# [37] = system: PC-3 prostate
# [38] = system: RPMI-8226 leukemia
# [39] = system: RXF 393 renal
# [40] = system: SF-268 CNS
# [41] = system: SF-295 CNS
# [42] = system: SF-539 CNS
# [43] = system: SK-MEL-2 melanoma
# [44] = system: SK-MEL-28 melanoma
# [45] = system: SK-MEL-5 melanoma
# [46] = system: SK-OV-3 ovarian
# [47] = system: SN12C renal
# [48] = system: SNB-19 CNS
# [49] = system: SNB-75 CNS
# [50] = system: SR leukemia
# [51] = system: SW-620 colon
# [52] = system: T-47D breast
# [53] = system: TK-10 renal
# [54] = system: U251 CNS
# [55] = system: UACC-257 melanoma
# [56] = system: UACC-62 melanoma
# [57] = system: UO-31 renal
compound,measurement,setting,value
COC(=O)CNC(=O)[C@@H](OC)[C@@H]1Cc2cc3cc(OC4CC(OC5CC(O)C(O)C(C)O5)C(O)C(C)O4)c(C)c(O)c3c(O)c2C(=O)[C@H]1OC1CC(OC2CC(OC3CC(C)(O)C(O)C(C)O3)C(O)C(C)O2)C(O)C(C)O1 (some centres undefined),GI50,[1],260 nM
same,TGI,[1],> 50000 nM
same,GI50,[2],183 nM
same,TGI,[2],> 50000 nM
same,GI50,[3],190 nM
same,TGI,[3],6940 nM
same,GI50,[4],114 nM
same,TGI,[4],1100 nM
same,GI50,[5],243 nM
same,TGI,[5],3840 nM
same,GI50,[6],186 nM
same,TGI,[6],> 50000 nM
same,GI50,[7],148 nM
same,TGI,[7],1180 nM
same,GI50,[8],208 nM
same,TGI,[8],> 50000 nM
same,GI50,[9],219 nM
same,TGI,[9],> 50000 nM
same,GI50,[10],207 nM
same,TGI,[10],1700 nM
same,GI50,[11],46.2 nM
same,TGI,[11],5380 nM
same,GI50,[12],1120 nM
same,TGI,[12],> 50000 nM
same,GI50,[13],1080 nM
same,TGI,[13],49100 nM
same,GI50,[14],90.8 nM
same,TGI,[14],> 50000 nM
same,GI50,[15],184 nM
same,TGI,[15],4590 nM
same,GI50,[16],123 nM
same,TGI,[16],2640 nM
same,GI50,[17],171 nM
same,TGI,[17],> 50000 nM
same,GI50,[18],192 nM
same,TGI,[18],> 50000 nM
same,GI50,[19],192 nM
same,TGI,[19],> 50000 nM
same,GI50,[20],127 nM
same,TGI,[20],> 50000 nM
same,GI50,[21],59.2 nM
same,TGI,[21],> 50000 nM
same,GI50,[22],239 nM
same,TGI,[22],2400 nM
same,GI50,[23],123 nM
same,TGI,[23],1030 nM
same,GI50,[24],54.6 nM
same,TGI,[24],> 50000 nM
same,GI50,[25],267 nM
same,TGI,[25],> 50000 nM
same,GI50,[26],166 nM
same,TGI,[26],1250 nM
same,GI50,[27],198 nM
same,TGI,[27],3350 nM
same,GI50,[28],110 nM
same,TGI,[28],414 nM
same,GI50,[29],150 nM
same,TGI,[29],> 50000 nM
same,GI50,[30],97 nM
same,TGI,[30],> 50000 nM
same,GI50,[31],92.1 nM
same,TGI,[31],372 nM
same,GI50,[32],48500 nM
same,TGI,[32],> 50000 nM
same,GI50,[33],204 nM
same,TGI,[33],4270 nM
same,GI50,[34],305 nM
same,TGI,[34],5400 nM
same,GI50,[35],184 nM
same,TGI,[35],> 50000 nM
same,GI50,[36],122 nM
same,TGI,[36],> 50000 nM
same,GI50,[37],234 nM
same,TGI,[37],> 50000 nM
same,GI50,[38],116 nM
same,TGI,[38],1380 nM
same,GI50,[39],87.7 nM
same,TGI,[39],355 nM
same,GI50,[40],196 nM
same,TGI,[40],> 50000 nM
same,GI50,[41],109 nM
same,TGI,[41],> 50000 nM
same,GI50,[42],141 nM
same,TGI,[42],2300 nM
same,GI50,[43],147 nM
same,TGI,[43],712 nM
same,GI50,[44],110 nM
same,TGI,[44],1030 nM
same,GI50,[45],84 nM
same,TGI,[45],538 nM
same,GI50,[46],444 nM
same,TGI,[46],> 50000 nM
same,GI50,[47],138 nM
same,TGI,[47],> 50000 nM
same,GI50,[48],154 nM
same,TGI,[48],> 50000 nM
same,GI50,[49],127 nM
same,TGI,[49],900 nM
same,GI50,[50],29.8 nM
same,TGI,[50],> 50000 nM
same,GI50,[51],184 nM
same,TGI,[51],> 50000 nM
same,GI50,[52],256 nM
same,TGI,[52],> 50000 nM
same,GI50,[53],402 nM
same,TGI,[53],> 50000 nM
same,GI50,[54],80.6 nM
same,TGI,[54],> 50000 nM
same,GI50,[55],146 nM
same,TGI,[55],1580 nM
same,GI50,[56],53.6 nM
same,TGI,[56],260 nM
same,GI50,[57],450 nM
same,TGI,[57],12800 nM
